{
  "source": "patent US12383547B2",
  "about": "“Methods of treatment for a kidney disease” (Vanderbilt University, priority 2020, dated 2025)",
  "key": {"[1]": {"test_system": "AKI in adult patients", "assay": "Epidemiologic EHR analysis (Vanderbilt 'Synthetic Derivative') of montelukast use and AKI", "type": "in vivo, human", "conditions": "N=3,721 adult patients, 147 users; logistic regression adjusted for race, sex, age, BMI, asthma; 95% CI: 13 to 56%; AKI defined as printed '≥21.5-fold serum creatine increase from baseline'", "excerpt": "Epidemiologic EHR data from Vanderbilt's ‘Synthetic Derivative’ was examined to determine whether montelukast use is associated with decreased AKI. Individuals eligible for inclusion in the dataset included those with two or more serum creatinine labs occurring after montelukast gained marketing approval (N=3,721), and children were excluded. Montelukast users were defined as those with ≥23 mentions of montelukast where 22 mentions are 230 days apart (N=147). AKI was defined as a ≥21.5-fold serum creatine increase from baseline (N=1,220). ‘Case users’ were defined as those who qualified as both an AKI case and a montelukast user (N=58). Crude and adjusted odds ratios (OR) and 95% confidence intervals (CI) were calculated using logistic regression."}, "[2]": {"test_system": "asthma patients (FEV1)", "conditions": "cited from earlier work"}, "[3]": {"conditions": "cited from earlier work"}, "[4]": {"test_system": "animal models", "conditions": "cited from earlier work"}, "[5]": {"conditions": "cited from earlier work", "remark": "listed apart in the source"}, "[6]": {"conditions": "single oral dose of 10, 100, or 250 mg"}},
  "note": "Where two headings read alike, the source gives them in different places.",
  "data": [
    {"compound": "CC(C)(O)c1ccccc1CC[C@@H](SCC1(CC(=O)O)CC1)c1cccc(/C=C/c2ccc3ccc(Cl)cc3n2)c1", "note": "[Montelukast, [R-(E)]-1-[[[1-[3-[2-(7-chloro-2-quinolinyl)ethenyl]phenyl]-3-[2-(1-hydroxy-1-methylethyl)phenyl]propyl]thio]methyl]cyclopropaneacetic acid]", "values": [
      {"measurement": "reduced odds (risk) of AKI, montelukast users compared to non-users", "setting": "[1]", "result": 38, "unit": "%"},
      {"measurement": "FEV1 increase at higher doses versus 10 mg once daily", "setting": "[2]; 200 mg three times per day", "result": "failed to increase FEV1 more than 10 mg once daily"},
      {"measurement": "period for which FEV1 effects were maintained", "setting": "[2]; [6]", "result": 24, "unit": "h"},
      {"measurement": "time to significant improvement of FEV1 after administration", "setting": "[2]; [6]", "result": "≤ 1", "unit": "h"},
      {"measurement": "adverse events", "setting": "[3]; 200 mg three times per day for 10 days", "result": "no significant adverse events"},
      {"measurement": "safety or effectiveness in subjects 65 years and over versus younger subjects", "setting": "[3]; clinical studies of montelukast, 3.5% were 65 and over, 0.4% were 75 and over", "result": "No overall differences in safety or effectiveness"},
      {"measurement": "neuropsychiatric disturbances", "setting": "[3]; phase IV post marketing studies, chronic montelukast users, additional research did not support this finding", "result": "concern for neuropsychiatric disturbances was noted"},
      {"measurement": "adverse events", "setting": "[3]; single doses of 800 mg", "result": "no significant adverse events"},
      {"measurement": "markers of inflammation", "setting": "[4]", "result": "attenuate markers of inflammation"},
      {"measurement": "markers of oxidative stress", "setting": "[4]; leukotriene antagonists such as montelukast", "result": "attenuate markers of oxidative stress"},
      {"measurement": "plasma concentration in dose ranging study", "setting": "[5]; dose ranging study of 20-800 mg", "result": "dose-dependent increase in plasma concentration"},
      {"measurement": "half-life", "setting": "[5]; human, in vivo", "result": 5, "unit": "h"},
      {"measurement": "potential for drug-drug interactions", "setting": "[5]; human, in vivo", "result": "low potential for drug-drug interactions"},
      {"measurement": "steady state plasma levels achieved", "setting": "[5]; human, in vivo", "result": "2 Day of dosing"},
      {"measurement": "pharmacokinetics in elderly volunteers versus younger adults", "setting": "[5]; oral 10 mg, elderly (aged 265 years as printed) vs younger adults (aged 20 to 45 years)", "result": "similar"},
      {"measurement": "elimination via the renal route", "setting": "[5]; package insert", "result": "not significantly eliminated via the renal route"}
    ]}
  ]
}
